Results: the NIST ThermoML archive (doi:10.1016/j.tca.2004.11.013)
Numbers after ± are expanded uncertainties.

Tests used:
[1] = molar heat capacity at constant pressure; conditions: 101.33 kPa, Liquid, Small sample (50 mg) DSC
[2] = for viscosity: 298 K, moving piston; for viscosity / thermal conductivity / mass density: 101.33 kPa, Liquid; for thermal conductivity: hot wire; for mass density: 333.1 K, Vibrating tube method; for Normal melting temperature: Crystal
[3] = Molar enthalpy of transition or fusion; conditions: Crystal; DSC

SMILES	molar heat capacity at constant pressure ([1]; 273.15 K)	molar heat capacity at constant pressure ([1]; 323.15 K)	molar heat capacity at constant pressure ([1]; 348.15 K)	molar heat capacity at constant pressure ([1]; 373.15 K)	molar heat capacity at constant pressure ([1]; 398.15 K)	molar heat capacity at constant pressure ([1]; 423.15 K)	molar heat capacity at constant pressure ([1]; 448.15 K)	molar heat capacity at constant pressure ([1]; 473.15 K)	viscosity [2]	thermal conductivity ([2]; 300 K)	thermal conductivity ([2]; 310 K)	thermal conductivity ([2]; 320 K)	thermal conductivity ([2]; 330 K)	mass density [2]	thermal conductivity ([2]; 340 K)	thermal conductivity ([2]; 350 K)	thermal conductivity ([2]; 360 K)	thermal conductivity ([2]; 370 K)	thermal conductivity ([2]; 380 K)	thermal conductivity ([2]; 390 K)	also measured
CCCCn1cc[n+](C)c1.F[B-](F)(F)F [1-butyl-3-methylimidazolium tetrafluoroborate]	308.75 ± 120 J/K/mol	341.75 ± 140 J/K/mol	355.76 ± 140 J/K/mol	367.74 ± 150 J/K/mol	378.36 ± 150 J/K/mol	386.95 ± 150 J/K/mol	393.96 ± 160 J/K/mol	399.16 ± 160 J/K/mol	119.78 ± 4.1 mPa·s	0.186 ± 0.006 W/m/K	0.185 ± 0.006 W/m/K	0.184 ± 0.006 W/m/K	0.184 ± 0.006 W/m/K	1174.7 ± 0.7 kg/m3	0.183 ± 0.006 W/m/K	0.183 ± 0.006 W/m/K	0.182 ± 0.006 W/m/K	0.181 ± 0.006 W/m/K	0.181 ± 0.006 W/m/K	0.18 ± 0.006 W/m/K	molar heat capacity at constant pressure ([1]; 223.15 K): 268.74 ± 110 J/K/mol; molar heat capacity at constant pressure ([1]; 248.15 K): 289.54 ± 120 J/K/mol; molar heat capacity at constant pressure ([1]; 298.15 K): 326.15 ± 130 J/K/mol; molar heat capacity at constant pressure ([1]; 498.15 K): 402.77 ± 160 J/K/mol; molar heat capacity at constant pressure ([1]; 523.15 K): 404.35 ± 160 J/K/mol; molar heat capacity at constant pressure ([1]; 548.15 K): 404.35 ± 160 J/K/mol; molar heat capacity at constant pressure ([1]; 573.15 K): 402.77 ± 160 J/K/mol; Glass transition temperature ([2]; Glass, DTA): -87.38 ± 2.6 °C
CCC[n+]1ccn(C)c1C.O=S(=O)([N-]S(=O)(=O)C(F)(F)F)C(F)(F)F	–	473.46 ± 190 J/K/mol	487.72 ± 200 J/K/mol	501.98 ± 200 J/K/mol	515.4 ± 210 J/K/mol	528.4 ± 210 J/K/mol	540.98 ± 220 J/K/mol	553.14 ± 220 J/K/mol	90.05 ± 2.7 mPa·s	0.13 ± 0.005 W/m/K	0.13 ± 0.005 W/m/K	0.129 ± 0.005 W/m/K	0.129 ± 0.005 W/m/K	1420.5 ± 0.8 kg/m3	0.128 ± 0.005 W/m/K	0.128 ± 0.005 W/m/K	0.127 ± 0.005 W/m/K	0.127 ± 0.005 W/m/K	0.126 ± 0.005 W/m/K	0.126 ± 0.005 W/m/K	molar heat capacity at constant pressure ([1]; 498.15 K): 564.47 ± 230 J/K/mol; molar heat capacity at constant pressure ([1]; 523.15 K): 575.79 ± 230 J/K/mol; molar heat capacity at constant pressure ([1]; 548.15 K): 586.69 ± 230 J/K/mol; molar heat capacity at constant pressure ([1]; 573.15 K): 597.18 ± 240 J/K/mol; molar heat capacity at constant pressure ([1]; 598.15 K): 607.24 ± 240 J/K/mol; molar heat capacity at constant pressure ([1]; 623.15 K): 616.89 ± 250 J/K/mol; molar heat capacity at constant pressure ([1]; 663.15 K): 631.15 ± 250 J/K/mol; Molar enthalpy of transition or fusion [3]: 19.7 ± 8 kJ/mol; Normal melting temperature ([2]; DTA): 11.29 ± 2.6 °C
CCn1cc[n+](C)c1.F[B-](F)(F)F [1-ethyl-3-methylimidazolium tetrafluoroborate]	244.49 ± 98 J/K/mol	–	–	257.95 ± 100 J/K/mol	–	–	–	–	36.07 ± 0.75 mPa·s	0.199 ± 0.006 W/m/K	0.197 ± 0.006 W/m/K	0.196 ± 0.006 W/m/K	0.195 ± 0.006 W/m/K	1252.6 ± 0.8 kg/m3	0.194 ± 0.006 W/m/K	0.193 ± 0.006 W/m/K	0.191 ± 0.006 W/m/K	0.19 ± 0.006 W/m/K	0.189 ± 0.006 W/m/K	0.188 ± 0.006 W/m/K	molar heat capacity at constant pressure ([1]; 293.15 K): 250.04 ± 100 J/K/mol; molar heat capacity at constant pressure ([1]; 313.15 K): 254 ± 100 J/K/mol; molar heat capacity at constant pressure ([1]; 333.15 K): 256.77 ± 100 J/K/mol; molar heat capacity at constant pressure ([1]; 353.15 K): 258.15 ± 100 J/K/mol; molar heat capacity at constant pressure ([1]; 393.15 K): 256.57 ± 100 J/K/mol; molar heat capacity at constant pressure ([1]; 403.15 K): 255.18 ± 100 J/K/mol; Molar enthalpy of transition or fusion [3]: 9.54 ± 3.8 kJ/mol; Normal melting temperature ([2]; DTA): 14.42 ± 1.1 °C
